Assay results reported in PMC8930249, “Elucidating the Novel Mechanism of Ligustrazine in Preventing Postoperative Peritoneal Adhesion Formation” (Oxidative Medicine and Cellular Longevity, 2022).

Biological target: T1, PPARγ (Homo sapiens, UniProt P37231)
T1 construct: gene PPARG; recombinant His-tagged PPARγ (pET10), wild type
T1 sequence (P37231 1-505): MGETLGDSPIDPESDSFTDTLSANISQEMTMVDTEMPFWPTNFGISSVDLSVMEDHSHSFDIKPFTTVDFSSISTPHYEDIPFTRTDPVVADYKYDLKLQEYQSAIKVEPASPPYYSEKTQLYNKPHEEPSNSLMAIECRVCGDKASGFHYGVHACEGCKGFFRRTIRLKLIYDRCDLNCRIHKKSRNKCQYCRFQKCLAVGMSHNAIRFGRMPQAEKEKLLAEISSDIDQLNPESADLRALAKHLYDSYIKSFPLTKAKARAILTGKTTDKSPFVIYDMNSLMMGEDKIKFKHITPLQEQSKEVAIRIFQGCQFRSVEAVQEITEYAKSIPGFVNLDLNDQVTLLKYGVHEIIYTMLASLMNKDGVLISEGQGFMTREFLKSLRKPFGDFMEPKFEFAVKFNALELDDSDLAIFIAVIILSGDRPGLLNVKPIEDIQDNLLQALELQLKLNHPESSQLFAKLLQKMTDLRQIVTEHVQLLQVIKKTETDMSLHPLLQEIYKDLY
Assay: biolayer interferometry (Octet RED […]), Ni-NTA immobilised His-tagged protein
Type: binding

Kd: 39.4 µM
Compound: Cc1nc(C)c(C)nc1C [Ligustrazine]
